Test results: patent US8591966B2, “Composition containing oils of chamomile flower and black cumin with reduced endotoxins” (Insignion Holdings Limited, priority 2007, dated 2013)
Like-named read-outs stand apart in the source and are kept apart here.

Experiments:
Assay type in all cases: cell-based
[1] = tested on: prostate cancer cells DU145; assay: DNA synthesis (3H-thymidine incorporation) in DU145; conditions: Homo sapiens, DU-145
Description: (§1) ^3H-Thymidine incorporation: DU145 and U-87MG cells were harvested by trypsinisation and seeded at 10,000 cells/well in a 96 well plate. The cells were incubated with the samples at the required concentrations for 24 hrs and/or 48 hrs at 37° C. and 5% CO2. The cells were pulsed with ^3H-Thymidine (1 μCi/ml) (Perkin Elmer) for 24 hours. After which, they were washed with PBS and fixed twice with methanol for 5 min. The protein was precipitated by 0.3N TCA. After a washing step 150 μl 0.3N NaOH was added for 15 min to lyse the cells. Back ground controls were measured with the samples without cells.
(§2) To detect the incorporated ^3H-Thymidine for the DNA synthesis the samples were transferred in scintillation tubes with scintillation cocktail. The quantification was performed in a Tri-Carb 1900 TR liquid scintillation counter (Packard, USA).
(§3) The effect of several concentrations of samples was measured by determining amount of radiolabel (dpm) under the assay conditions. Dose related values were expressed as a percentage of the positive control values. Sample points were measured as quadruplicates, errors are expressed as standard deviations.

[2] = tested on: glioblastoma cells U-87 MG; assay: DNA synthesis (3H-thymidine incorporation) in U-87MG; conditions: Homo sapiens, 48 h incubation
Description: as §1, §2, §3

5-LOX = molecular target: T1, 5-LOX (Homo sapiens, UniProt P09917); assay: 5-LOX inhibition assay (LTB4) in differentiated HL-60 granulocytes; conditions: reference listed under the 5-LOX IC50 table
T1 construct: endogenous in cells; host or cells: HL-60 (human myeloid leukemia, DSMZ ACC 3), differentiated with DMSO
T1 sequence (P09917 1-674): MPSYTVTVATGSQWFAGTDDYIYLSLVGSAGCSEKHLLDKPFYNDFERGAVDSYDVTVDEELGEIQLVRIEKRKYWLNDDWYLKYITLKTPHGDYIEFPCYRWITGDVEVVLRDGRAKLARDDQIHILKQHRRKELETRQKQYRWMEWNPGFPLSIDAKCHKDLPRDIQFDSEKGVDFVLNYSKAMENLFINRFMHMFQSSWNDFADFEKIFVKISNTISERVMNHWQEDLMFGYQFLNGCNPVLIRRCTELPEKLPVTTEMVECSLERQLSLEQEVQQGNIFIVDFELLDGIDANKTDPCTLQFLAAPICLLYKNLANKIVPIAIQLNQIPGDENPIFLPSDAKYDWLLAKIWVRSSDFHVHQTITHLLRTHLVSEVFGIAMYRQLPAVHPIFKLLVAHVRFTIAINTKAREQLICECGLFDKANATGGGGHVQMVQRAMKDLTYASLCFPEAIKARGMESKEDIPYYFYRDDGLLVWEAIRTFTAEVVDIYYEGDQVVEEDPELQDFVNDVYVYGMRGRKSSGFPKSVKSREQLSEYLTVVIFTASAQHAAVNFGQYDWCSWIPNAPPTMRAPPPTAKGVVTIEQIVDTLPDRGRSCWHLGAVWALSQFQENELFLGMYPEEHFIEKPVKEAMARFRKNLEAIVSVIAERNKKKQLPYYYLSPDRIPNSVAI
Description: Human HL-60 cells (myeloid leukemia, DSMZ No ACC 3) were kept at 37° C. in a humidified atmosphere with 5% CO2 and cultured in complete RPMI1640 medium supplemented with 10% fetal calf serum and 1% (v/v) penicillin/streptomycin solution. Cells were differentiated for 6 to 8 days with DMSO (1.2% v/v). The 5-LOX activity assay was carried out as described by Bennet et al. [ref: 2]. Briefly, differentiated cells were harvested, suspended in PBS containing Ca^2+ (1 mM) and glucose (1 mM) and distributed into a 96-well microtiter plate (1×10^6 cells/well).
After preincubation with sample or vehicle for 15 min at room temperature the reaction was started by adding calcium ionophore A 23187 (5 uM) and arachidonic acid (10 uM). All values are final concentrations. […] After neutralization with 50 μl PBS and centrifugation (340×g) for 10 min the LTB4 concentration in the supernatant was determined.
Effects of samples and reference compound [ref: 3] on the activity of 5-LOX were measured by determining the quantity of leukotriene B4 produced under assay conditions. The quantification of leukotriene B4 was performed with Enzyme Immuno Assay (EIA) Kit from Cayman No 520111 (LTB4). The optical densities were measured at wavelength=415 nm. The quantities were calculated using a standard curve of at least 5 different concentrations. Sample points were measured as duplicates. […]

Structure (SMILES) | IC50 ([1]; DU145, 24 h incubation, read-out: IC50 (nM) on DNA synthesis, 24 h incubation) | IC50 ([1]; DU145, 48 h incubation, read-out: IC50 (nM) on DNA synthesis, 48 h incubation) | IC50 [2] | IC50 (5-LOX)
CC[C@@]1(O)C(=O)OCc2c1cc1n(c2=O)Cc2cc3ccccc3nc2-1 [Camptothecin] | 152 nM | 7.5 nM | 3.32 nM | –
C[C@@H]1C[C@H]2[C@@H]3CCC4=CC(=O)C=C[C@]4(C)[C@@]3(F)[C@@H](O)C[C@]2(C)[C@@]1(O)C(=O)CO [Dexamethasone] | – | – | – | 0.28 nM
